Test results taken from PMC3859378 (Archives of biochemistry and biophysics, 2013).

Biological target: Mtb-GAPDH (Mycobacterium tuberculosis, UniProt P9WN83)
Test: time- and concentration-dependent inactivation, Kitz-Wilson re-plot
Assay type: biochemical
Conditions: read-out: Ki

Chain of Mtb-GAPDH (P9WN83 whole entry): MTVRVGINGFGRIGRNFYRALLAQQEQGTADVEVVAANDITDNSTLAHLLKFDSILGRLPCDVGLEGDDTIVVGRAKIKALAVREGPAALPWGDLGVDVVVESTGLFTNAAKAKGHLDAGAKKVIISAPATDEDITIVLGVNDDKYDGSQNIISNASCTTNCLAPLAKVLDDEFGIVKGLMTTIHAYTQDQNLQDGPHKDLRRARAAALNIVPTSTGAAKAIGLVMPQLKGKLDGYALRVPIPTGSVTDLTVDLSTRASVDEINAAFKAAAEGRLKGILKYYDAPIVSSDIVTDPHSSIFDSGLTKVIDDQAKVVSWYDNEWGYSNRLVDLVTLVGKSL

In the case of `NC(=O)CI` [IAM, iodoacetamide], the KI (inactivation) is reported as 7.8 mM.
